Drawing on publication PMC10445084, “Green synthesis, anti-proliferative evaluation, docking, and MD simulations studies of novel 2-piperazinyl quinoxaline derivatives using hercynite sulfaguanidine-SA as a highly efficient and reusable nanocatalyst” (RSC Advances, 2023), this text covers IC50 for 16 molecules.

Assay [1] deals with HFF (human foreskin fibroblasts) normal cells. As to the kind of experiment: MTT cytotoxicity assay, HFF normal cells. The class given is cell-based. The settings on record: Fibroblast, 48 h incubation. The protocol: (§1) The tested cells were cultured in medium and dialyzed fetal bovine serum (FBS) and then as suspended germs in Minimum Essential Medium (MEM) were seeded into 96-well plates (at the density of 10 × 10^4 viable cells per well). After 24 h incubation in 5% CO2 at 37 °C and cell attachment. Then the evaluated compounds (at 0.1–250 μg ml^−1 concentrations) were added to the cultured cells and incubated for another 24/48 h.[18,19] After washing of the cell containing plates with […], 20 μl of fresh 4,5-(dimethylthiazol-2-yl)-2,5-diphenyl tetrazolium bromide (MTT) solution (5 mg ml^−1) was added to each well, and incubated with cells for additional 4 h in the same conditions. Then, the medium was discarded and approximately 70 μl of DMSO was used and the resulted solution was vigorously mixed to dissolve and remove the residual tetrazolium and purple formazan crystals in each well. Next, the absorbance of each well was measured at 492 nm and 630 nm (for absorbance of MTT formazan and the reference wavelength respectively) with an ELISA plate reader. Stock solutions of all the tested compounds were prepared in DMSO, while the final dilutions were made with distilled water in order to maintain a maximum concentration of 0.5% DMSO per well. All the evaluated compounds were also tested for cytotoxicity on HFF normal cells at the above-mentioned concentrations and in the same conditions and incubation periods of time. Curves were fit using Graph Pad Prism as described in the Methods section.[19]
(§2) All the evaluated N-Mannich bases (2a–2d, 3a–3h and 4a–4d) were investigated for anti-proliferative activity against two cancer cell lines, HCT116 (human colon cancer) and KOV3 (human ovarian carcinoma). HFF (human foreskin fibroblasts) normal cells were also tested to determine the selectivity of their cytotoxic effects in killing cancer over normal cells. […] After 24 and 48 h of incubation, cell viability was measured by the [3-(4,5-dimethylthiazol-2-yl)-2,5-diphenyltetrazolium bromide] (MTT) colorimetric assay.[34] At the end of each incubation period, the IC50 value and cell viability for each N-Mannich base were calculated in different concentrations (0.15–2.4 μM) and determined graphically as established in Fig. 3. […] A DMSO equivalent control (n = 2 ± SEM) was also included for each cell line tested. Standard graph was plotted by taking concentration of the drug in X axis and relative cell viability in Y axis (cell viability (%) = mean OD/control OD × 100%) in Graph Pad Prism 8.
(§3) 2.5. Biological evaluations: In vitro cytotoxicity
(§4) This rapid assay is based on the reduction of tetrazolium salt to dark blue formazan product by mitochondrial enzymes of living, not dead cells after 24 and 48h exposure of cells to tested compounds at different concentrations. DMSO (with the less concentration than 1%) was the solvent in this biological test. serial concentrations were made by diluting stock solution of each compound (50μM) with culture media (RPMI 1640). […]
A general note: Tetrazolium assays rely on reduction of a dye to a coloured formazan, in cell work by metabolically active cells.

The test system of assay [2] is HCT116. As to the kind of experiment: MTT cytotoxicity assay, HCT116 colon cancer cells. To be noted: 48 h incubation. The class given is cell-based, human. The protocol: as §1, §2, §3, §4
For assay [3], the system named is SKOV3. The assay can be described thus: MTT cytotoxicity assay, SKOV3 ovarian cancer cells. The class given is cell-based, human. To be noted: 48 h incubation. On the procedure:
as §1, §2, §3, §4

The subject of assay [4] is HCT116 and SKOV3. The assay can be described thus: MTT assay, statements pooled over both cancer cell lines. It counts as cell-based. To be noted: Homo sapiens, read-out: IC50 on the tested cancer cell lines. On the procedure: as §1, with “Then, the medium was discarded and approximately 70 μl of DMSO was used and the resulted solution was vigorously mixed to dissolve and remove the residual tetrazolium and purple formazan crystals in each well.” left out, “Stock solutions of all the tested compounds were prepared in DMSO, while the final dilutions were made with distilled water in order to maintain a maximum concentration of 0.5% DMSO per well.” left out, “Curves were fit using Graph Pad Prism as described in the Methods section.[19]” left out
All the evaluated N-Mannich bases (2a–2d, 3a–3h and 4a–4d) were investigated for anti-proliferative activity against two cancer cell lines, HCT116 (human colon cancer) and KOV3 (human ovarian carcinoma). […] After 24 and 48 h of incubation, cell viability was measured by the [3-(4,5-dimethylthiazol-2-yl)-2,5-diphenyltetrazolium bromide] […]

By IC50 is commonly meant the concentration at which inhibition is half-maximal. As for `O=C1C(=O)N(CN2CCN(c3cnc4ccccc4n3)CC2)c2ccccc21` [2a, 1-((4-(quinoxalin-2-yl)piperazin-1-yl)methyl) indoline-2,3-dione], the IC50 stood at 83.6 µM in assay [1]; 7.03 µM in assay [2] (Homo sapiens, HCT-116, 48 h); 7.67 µM in assay [3] (Homo sapiens, SK-OV-3, 48 h).
Take `NC(=S)N/N=C1/C(=O)N(CN2CCN(c3cnc4ccccc4n3)CC2)c2ccc(Cl)cc21` [3f, 2-(5-chloro-2-oxo-1-((4-(quinoxalin-2-yl)piperazin-1-yl)methyl)indolin-3-ylidene) hydrazine-1-carbothioamide]: the IC50 in assay [1] stood at 57.1 µM; in assay [2] (Homo sapiens, HCT-116, 48 h) it was 4.92 µM; in assay [3] (Homo sapiens, SK-OV-3, 48 h), 5.15 µM.
As for `NC(=O)N/N=C1/C(=O)N(CN2CCN(c3cnc4ccccc4n3)CC2)c2ccc(Cl)cc21` [3e, 2-(5-chloro-2-oxo-1-((4-(quinoxalin-2-yl)piperazin-1-yl)methyl)indolin-3-ylidene) hydrazine-1-carboxamide], the IC50 in assay [1] worked out at 37.6 µM; in assay [2] (Homo sapiens, HCT-116, 48 h) it was 4.3 µM; in assay [3] (Homo sapiens, SK-OV-3, 48 h), 4.96 µM.
For the molecule `Cc1ccc2c(c1)C(=O)C(=O)N2CN1CCN(c2cnc3ccccc3n2)CC1` [2d, 5-methyl-1-((4-(quinoxalin-2-yl)piperazin-1-yl)methyl) indoline-2,3-dione], the IC50 is 58.1 µM in assay [1]; 5 µM in assay [2] (Homo sapiens, HCT-116, 48 h); 5.3 µM in assay [3] (Homo sapiens, SK-OV-3, 48 h).
As to `Cc1ccc2c(c1)/C(=N\C(=N)NC(=N)N(C)C)C(=O)N2CN1CCN(c2cnc3ccccc3n2)CC1` [4d], the IC50 in assay [1] worked out at 10 µM; in assay [2] (Homo sapiens, HCT-116, 48 h), 1.54 µM; in assay [3] (Homo sapiens, SK-OV-3, 48 h) it was 1.72 µM.
In the same order, the values of `O=C1C(=O)N(CN2CCN(c3cnc4ccccc4n3)CC2)c2ccc(Br)cc21` [2b, 5-bromo-1-((4-(quinoxalin-2-yl)piperazin-1-yl)methyl) indoline-2,3-dione] are 58.1 µM, 5.12 µM and 5.43 µM.
Regarding `Cc1ccc2c(c1)/C(=N\NC(N)=S)C(=O)N2CN1CCN(c2cnc3ccccc3n2)CC1` [3h, 2-(5-methyl-2-oxo-1-((4-(quinoxalin-2-yl)piperazin-1-yl)methyl)indolin-3-ylidene) hydrazine-1-carbothioamide], the IC50 in assay [1] was 26.6 µM; in assay [2] (Homo sapiens, HCT-116, 48 h), 3.23 µM; in assay [3] (Homo sapiens, SK-OV-3, 48 h) it was 3.46 µM.
In the case of `NC(=S)N/N=C1/C(=O)N(CN2CCN(c3cnc4ccccc4n3)CC2)c2ccc(Br)cc21` [3d, 2-(5-bromo-2-oxo-1-((4-(quinoxalin-2-yl)piperazin-1-yl)methyl)indolin-3-ylidene) hydrazine-1-carbothioamide], the IC50 in assay [1] stood at 49.6 µM; in assay [2] (Homo sapiens, HCT-116, 48 h), 4.85 µM; in assay [3] (Homo sapiens, SK-OV-3, 48 h), 5.03 µM.
Turning to `Cc1ccc2c(c1)C(=NNC(N)=O)C(=O)N2CN1CCN(c2cnc3ccccc3n2)CC1` [3g, 2-(5-methyl-2-oxo-1-((4-(quinoxalin-2-yl)piperazin-1-yl)methyl)indolin-3-ylidene)hydrazine-1-carboxamide], the IC50 in assay [1] is 22.8 µM; in assay [2] (Homo sapiens, HCT-116, 48 h), 2.92 µM; in assay [3] (Homo sapiens, SK-OV-3, 48 h), 3.25 µM.
For `O=C1C(=O)N(CN2CCN(c3cnc4ccccc4n3)CC2)c2ccc(Cl)cc21` [2c, 5-chloro-1-((4-(quinoxalin-2-yl)piperazin-1-yl)methyl) indoline-2,3-dione], the IC50 in assay [1] worked out at 82 µM; in assay [2] (Homo sapiens, HCT-116, 48 h) it was 6.06 µM; in assay [3] (Homo sapiens, SK-OV-3, 48 h), 6.49 µM.
Regarding `CN(C)C(=N)NC(=N)N=C1C(=O)N(CN2CCN(c3cnc4ccccc4n3)CC2)c2ccccc21` [4a, N’-[4-(quinoxaline-2-yl)-piperazine-1-yl]methyl-1-H-indole,2,3-dion-3-metformin], the IC50 was determined as 9.11 µM in assay [1]; 1.23 µM in assay [2] (Homo sapiens, HCT-116, 48 h); 1.51 µM in assay [3] (Homo sapiens, SK-OV-3, 48 h).
For the molecule `NC(=O)N/N=C1/C(=O)N(CN2CCN(c3cnc4ccccc4n3)CC2)c2ccc(Br)cc21` [3c, 2-(5-bromo-2-oxo-1-((4-(quinoxalin-2-yl)piperazin-1-yl)methyl)indolin-3-ylidene) hydrazine-1-carboxamide], the IC50 in assay [1] came to 35.9 µM; in assay [2] (Homo sapiens, HCT-116, 48 h) it was 3.35 µM; in assay [3] (Homo sapiens, SK-OV-3, 48 h) it was 3.52 µM.
As to `NC(=O)NN=C1C(=O)N(CN2CCN(c3cnc4ccccc4n3)CC2)c2ccccc21` [3a, 2-(2-oxo-1-((4-(quinoxalin-2-yl)piperazin-1-yl)methyl)indolin-3-ylidene) hydrazine-1-carboxamide], the IC50 in assay [1] turned out to be 13.5 µM; in assay [2] (Homo sapiens, HCT-116, 48 h) it was 1.99 µM; in assay [3] (Homo sapiens, SK-OV-3, 48 h), 2.21 µM.
`CN(C)C(=N)NC(=N)/N=C1/C(=O)N(CN2CCN(c3cnc4ccccc4n3)CC2)c2ccc(Br)cc21` [4b, N′-[4-(quinoxaline-2-yl)-piperazine-1-yl]methyl-5-bromo-1-H-indole,2,3-dion-3-metformin]: the IC50 in assay [4] was less than 1 µM; in assay [1] it was 6.95 µM; in assay [2], 0.458 µM; in assay [2] (Homo sapiens, HCT-116, 48 h) it was 0.45 µM; in assay [3], 0.488 µM; in assay [3] (Homo sapiens, SK-OV-3, 48 h), 0.48 µM.
Take `CN(C)C(=N)NC(=N)/N=C1/C(=O)N(CN2CCN(c3cnc4ccccc4n3)CC2)c2ccc(Cl)cc21` [4c, N′-[4-(quinoxaline-2-yl)-piperazine-1-yl]methyl-5-chloro-1-H-indole,2,3-dion-3-metformin]: the IC50 in assay [4] was less than 1 µM; in assay [1], 6.81 µM; in assay [2] it was 0.392 µM; in assay [2] (Homo sapiens, HCT-116, 48 h) it was 0.39 µM; in assay [3], 0.44 µM; in assay [3] (Homo sapiens, SK-OV-3, 48 h), 0.44 µM.
Consider `NC(=S)N/N=C1/C(=O)N(CN2CCN(c3cnc4ccccc4n3)CC2)c2ccccc21` [3b, 2-(2-oxo-1-((4-(quinoxalin-2-yl)piperazin-1-yl)methyl)indolin-3-ylidene) hydrazine-1-carbothioamide], for which the IC50 in assay [1] turned out to be 24.6 µM; in assay [2] (Homo sapiens, HCT-116, 48 h) it was 3.03 µM; in assay [3] (Homo sapiens, SK-OV-3, 48 h) it was 3.38 µM.
